Test results as given in US6503881B2 (priority 1996, dated 2003).
Where two headings read alike, the source gives them in different places.

What was measured:
E. faecium = format: cell-based; details: for MBI 26 MIC, +Teicoplanin: in combination with teicoplanin; for MIC in combination: Teicoplanin + MBI 26
a bacterial strain = format: cell-based
P. aeruginosa = format: cell-based

## KWKSFIKKLTSAAKKVVTTAKPLISS [MBI 26]
E. faecium; E. faecium 97001 VanB, agent alone
  MIC Alone: 64 µg/mL
E. faecium; E. faecium 97001 VanB
  MBI 26 MIC, +Teicoplanin: 4 µg/mL
E. faecium; E. faecium 97002 VanB, agent alone
  MIC Alone: 64 µg/mL
E. faecium; E. faecium 97002 VanB
  MBI 26 MIC, +Teicoplanin: 1 µg/mL
E. faecium; E. faecium 97003 VanB, agent alone
  MIC Alone: 64 µg/mL
E. faecium; E. faecium 97003 VanB
  MBI 26 MIC, +Teicoplanin: 1 µg/mL
E. faecium; E. faecium 97005 VanB, agent alone
  MIC Alone: 64 µg/mL
E. faecium; E. faecium 97005 VanB
  MBI 26 MIC, +Teicoplanin: 2 µg/mL
E. faecium; E. faecium 97006 VanB, agent alone
  MIC Alone: 64 µg/mL
E. faecium; E. faecium 97006 VanB
  MBI 26 MIC, +Teicoplanin: 4 µg/mL
E. faecium; E. faecium 97007 VanB, agent alone
  MIC Alone: 64 µg/mL
E. faecium; E. faecium 97007 VanB
  MBI 26 MIC, +Teicoplanin: 1 µg/mL
E. faecium; E. faecium 97008 VanB, agent alone
  MIC Alone: 64 µg/mL
E. faecium; E. faecium 97008 VanB
  MBI 26 MIC, +Teicoplanin: 4 µg/mL
E. faecium; E. faecium 97009 VanB, agent alone
  MIC Alone: 32 µg/mL
E. faecium; E. faecium 97009 VanB
  MBI 26 MIC, +Teicoplanin: 1 µg/mL
E. faecium; E. faecium 97010 VanB, agent alone
  MIC Alone: 64 µg/mL
E. faecium; E. faecium 97010 VanB
  MBI 26 MIC, +Teicoplanin: 4 µg/mL
E. faecium; E. faecium 97011 VanB, agent alone
  MIC Alone: 64 µg/mL
E. faecium; E. faecium 97011 VanB
  MBI 26 MIC, +Teicoplanin: 4 µg/mL
E. faecium; E. faecium 97012 VanB, agent alone
  MIC Alone: 64 µg/mL
E. faecium; E. faecium 97012 VanB
  MBI 26 MIC, +Teicoplanin: 4 µg/mL
E. faecium; E. faecium 97013 VanB, agent alone
  MIC Alone: 64 µg/mL
E. faecium; E. faecium 97013 VanB
  MBI 26 MIC, +Teicoplanin: 8 µg/mL
E. faecium; E. faecium 97014 VanB, agent alone
  MIC Alone: 32 µg/mL
E. faecium; E. faecium 97014 VanB
  MBI 26 MIC, +Teicoplanin: 4 µg/mL
E. faecium; E. faecium 97015 VanB, agent alone
  MIC Alone: 64 µg/mL
E. faecium; E. faecium 97015 VanB
  MBI 26 MIC, +Teicoplanin: 4 µg/mL
E. faecium; E. faecium 97016 VanB, agent alone
  MIC Alone: 64 µg/mL
E. faecium; E. faecium 97016 VanB
  MBI 26 MIC, +Teicoplanin: 4 µg/mL
E. faecium; E. faecium 97017 VanA
  MIC Alone: 64 µg/mL
  MIC in combination: 4 µg/mL
E. faecium; E. faecium 97018 VanA
  MIC Alone: 64 µg/mL
  MIC in combination: 8 µg/mL
E. faecium; E. faecium 97019 VanA
  MIC Alone: 64 µg/mL
  MIC in combination: 16 µg/mL
E. faecium; E. faecium 97020 VanA
  MIC Alone: 64 µg/mL
  MIC in combination: 16 µg/mL
E. faecium; E. faecium 97021 VanA
  MIC Alone: 64 µg/mL
  MIC in combination: 32 µg/mL
E. faecium; E. faecium 97022 VanA
  MIC Alone: 64 µg/mL
  MIC in combination: 4 µg/mL
E. faecium; E. faecium 97023 VanA
  MIC Alone: 64 µg/mL
  MIC in combination: 4 µg/mL
E. faecium; E. faecium 97024 VanA
  MIC Alone: 64 µg/mL
  MIC in combination: 8 µg/mL
E. faecium; E. faecium 97025 VanA
  MIC Alone: 16 µg/mL
  MIC in combination: 4 µg/mL
E. faecium; E. faecium 97026 VanA
  MIC Alone: 64 µg/mL
  MIC in combination: 16 µg/mL
E. faecium; E. faecium 97027 VanA
  MIC Alone: 64 µg/mL
  MIC in combination: 8 µg/mL
E. faecium; E. faecium 97028 VanA
  MIC Alone: 8 µg/mL
  MIC in combination: 8 µg/mL
E. faecium; E. faecium 97029 VanA
  MIC Alone: 64 µg/mL
  MIC in combination: 8 µg/mL
E. faecium; E. faecium 97030 VanA
  MIC Alone: 64 µg/mL
  MIC in combination: 32 µg/mL
E. faecium; E. faecium 97031 VanA
  MIC Alone: 64 µg/mL
  MIC in combination: 32 µg/mL
E. faecium; E. faecium 97032 VanA
  MIC Alone: 64 µg/mL
  MIC in combination: 8 µg/mL
E. faecium; E. faecium 97033 VanA
  MIC Alone: 64 µg/mL
  MIC in combination: 8 µg/mL
E. faecium; E. faecium 97034 VanA
  MIC Alone: 64 µg/mL
  MIC in combination: 8 µg/mL
E. faecium; E. faecium 97035 VanA
  MIC Alone: 64 µg/mL
  MIC in combination: 0.5 µg/mL
E. faecium; E. faecium 97036 VanA
  MIC Alone: 8 µg/mL
  MIC in combination: 4 µg/mL
A bacterial strain
  killing in time kill assay: greater killing than either peptide or antibiotic agent alone
P. aeruginosa; P. aeruginosa PA024, pair Ceftriaxone / MBI 26
  MIC in combination: 32 µg/mL
P. aeruginosa; P. aeruginosa PA041, agent alone
  MIC Alone: 64 µg/mL
P. aeruginosa; P. aeruginosa PA041, in combination with erythromycin
  MBI 26 MIC, +Erythro.: 32 µg/mL

## W R I W K P K W R L P K W [MBI 11D18CN]
bacteria; A. calcoaceticus AC003
  MIC: 32 µg/mL
bacteria; E. cloacae ECL009
  MIC: 64 µg/mL
bacteria; E. coli ATCC 25922, agarose dilution assay
  MIC: 16 µg/mL
bacteria; E. coli ECO002
  MIC: 4 µg/mL
bacteria; E. coli ESS, agarose dilution assay
  MIC: 2 µg/mL
bacteria; E. coli NCTC 10418, agarose dilution assay
  MIC: 2 µg/mL
bacteria; E. faecalis EFS002
  MIC: 32 µg/mL
bacteria; E. faecium ATCC 29212, agarose dilution assay
  MIC: 8 µg/mL
bacteria; E. faecium EFM003
  MIC: 2 µg/mL
bacteria; H. influenzae HIN002
  MIC: >128 µg/mL
bacteria; K. pneumoniae KP002
  MIC: 64 µg/mL
bacteria; P. aeruginosa ATCC 27853, agarose dilution assay
  MIC: 128 µg/mL
bacteria; P. aeruginosa NCTC 10662, agarose dilution assay
  MIC: 128 µg/mL
bacteria; P. aeruginosa PA006
  MIC: >128 µg/mL
bacteria; P. mirabilis PM003
  MIC: >128 µg/mL
bacteria; P. vulgaris ATCC 13315, agarose dilution assay
  MIC: 32 µg/mL
bacteria; P. vulgaris SBPV1
  MIC: 32 µg/mL
bacteria; S. aureus ATCC 29213, agarose dilution assay
  MIC: 0.5 µg/mL
bacteria; S. aureus MRSA9, agarose dilution assay
  MIC: 2 µg/mL
bacteria; S. aureus MRSA13, agarose dilution assay
  MIC: 8 µg/mL
bacteria; S. aureus MRSA17, agarose dilution assay
  MIC: 2 µg/mL
bacteria; S. aureus SA010
  MIC: 4 µg/mL
bacteria; S. aureus SA206, agarose dilution assay
  MIC: 4 µg/mL
bacteria; S. epidermidis SE010
  MIC: 2 µg/mL
bacteria; S. maltophilia SMA003
  MIC: 16 µg/mL
bacteria; S. marcescens SBSM2
  MIC: >128 µg/mL
bacteria; S. marcescens SM76, agarose dilution assay
  MIC: >128 µg/mL
bacteria; S. marcescens SM82, agarose dilution assay
  MIC: >128 µg/mL
bacteria; S. pneumoniae 406LE8, agarose dilution assay
  MIC: 64 µg/mL
bacteria; S. pneumoniae 60120, agarose dilution assay
  MIC: 128 µg/mL
bacteria; S. pneumoniae ATCC 49619, agarose dilution assay
  MIC: 64 µg/mL
bacteria; S. pneumoniae SBSPN3
  MIC: 64 µg/mL
bacteria; S. pyogenes SPY003
  MIC: 32 µg/mL
